Test results taken from the supplement of paper PMC10307832.

What was measured:
Assay in all cases: relative viability (nuclei count vs DMSO), 5 days (fraction); higher = more cells survive
[1] = test system: NCI-H596
Outline: (§1)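 Lung cancer cell lines were seeded in 1536-well plates and dosed by pin tool the next day, with either a single drug or a fixed anchor-drug dose combined with five library-drug doses (not always all listed) spaced in √10 steps. Five days later, one step fixed the cells and stained their nuclei (final 0.05% Triton X-100, 1% formaldehyde, 1 ug/ml Hoechst), and nuclei were counted on 4× images. Relative viability is the nuclei count in treated wells divided by the count in vehicle wells, and each value is the median of duplicate plates.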

[2] = test system: HARA
Outline: as §1

[3] = test system: NCI-H2170
Outline: as §1

[4] = test system: NCI-H23
Outline: as §1

[5] = test system: SW 1573
Outline: as §1

[6] = test system: EKVX
Outline: as §1

[7] = test system: NCI-H2405
Outline: as §1

[8] = test system: H3255
Outline: as §1

[9] = test system: NCI-H3122
Outline: as §1

[10] = test system: HCC-15
Outline: as §1

[11] = test system: SW 900
Outline: as §1

[12] = test system: LCLC-103H
Outline: as §1

[13] = test system: EPLC-272H
Outline: as §1

[14] = test system: RERF-LC-KJ
Outline: as §1

[15] = test system: LK-2
Outline: as §1

[16] = test system: ChaGo-K-1
Outline: as §1

[17] = test system: NCI-H1793
Outline: as §1

[18] = test system: LC-2-ad
Outline: as §1

[19] = test system: NCI-H1648
Outline: as §1

[20] = test system: EMC-BAC-2
Outline: as §1

[21] = test system: HCC-827
Outline: as §1

[22] = test system: NCI-H1944
Outline: as §1

[23] = test system: NCI-H1792
Outline: as §1

SMILES: Oc1nc(-c2ccc(C(F)(F)F)cc2)nc2c1CSCC2 [XAV939] + O=C(c1cc(Cc2n[nH]c(=O)c3ccccc23)ccc1F)N1CCN(C(=O)C2CC2)CC1 [Olaparib] (partner 8 µM)
- relative viability ([1]; first compound 0.08 µM): 0.769
- relative viability ([1]; first compound 0.253 µM): 0.644
- relative viability ([1]; first compound 0.8 µM): 0.776
- relative viability ([1]; first compound 2.53 µM): 0.556
- relative viability ([2]; first compound 0.08 µM): 0.832
- relative viability ([2]; first compound 0.253 µM): 0.862
- relative viability ([2]; first compound 0.8 µM): 0.759
- relative viability ([2]; first compound 2.53 µM): 0.661
- relative viability ([3]; first compound 0.08 µM): 0.56
- relative viability ([3]; first compound 0.253 µM): 0.451
- relative viability ([3]; first compound 0.8 µM): 0.5
- relative viability ([3]; first compound 2.53 µM): 0.402
- relative viability ([4]; first compound 0.08 µM): 0.323
- relative viability ([4]; first compound 0.8 µM): 0.278
- relative viability ([4]; first compound 2.53 µM): 0.264
- relative viability ([5]; first compound 0.08 µM): 0.437
- relative viability ([5]; first compound 0.253 µM): 0.499
- relative viability ([5]; first compound 0.8 µM): 0.485
- relative viability ([5]; first compound 2.53 µM): 0.379
- relative viability ([6]; first compound 0.08 µM): 0.929
- relative viability ([6]; first compound 0.253 µM): 0.514
- relative viability ([6]; first compound 0.8 µM): 0.65
- relative viability ([6]; first compound 2.53 µM): 0.378
- relative viability ([7]; first compound 0.08 µM): 0.974
- relative viability ([7]; first compound 0.253 µM): 0.824
- relative viability ([7]; first compound 0.8 µM): 0.797
- relative viability ([7]; first compound 2.53 µM): 0.766
- relative viability ([8]; first compound 0.08 µM): 0.598
- relative viability ([8]; first compound 0.253 µM): 0.563
- relative viability ([8]; first compound 0.8 µM): 0.553
- relative viability ([8]; first compound 2.53 µM): 0.51
- relative viability ([9]; first compound 0.08 µM): 0.706
- relative viability ([9]; first compound 0.253 µM): 0.574
- relative viability ([9]; first compound 0.8 µM): 0.538
- relative viability ([9]; first compound 2.53 µM): 0.468
- relative viability ([10]; first compound 0.08 µM): 0.693
- relative viability ([10]; first compound 0.253 µM): 0.717
- relative viability ([10]; first compound 0.8 µM): 0.67
- relative viability ([10]; first compound 2.53 µM): 0.676
- relative viability ([11]; first compound 0.253 µM): 0.844
- relative viability ([11]; first compound 0.8 µM): 0.832
- relative viability ([11]; first compound 2.53 µM): 0.421
- relative viability ([12]; first compound 0.08 µM): 0.833
- relative viability ([12]; first compound 0.253 µM): 0.691
- relative viability ([12]; first compound 0.8 µM): 0.725
- relative viability ([12]; first compound 2.53 µM): 0.767
- relative viability ([13]; first compound 0.08 µM): 0.745
- relative viability ([13]; first compound 0.253 µM): 0.89
- relative viability ([13]; first compound 0.8 µM): 0.97
- relative viability ([13]; first compound 2.53 µM): 0.719
- relative viability ([14]; first compound 0.08 µM): 0.868
- relative viability ([14]; first compound 0.253 µM): 0.763
- relative viability ([14]; first compound 0.8 µM): 0.617
- relative viability ([14]; first compound 2.53 µM): 0.292
- relative viability ([15]; first compound 0.08 µM): 0.607
- relative viability ([15]; first compound 0.253 µM): 0.669
- relative viability ([15]; first compound 0.8 µM): 0.84
- relative viability ([15]; first compound 2.53 µM): 0.657
- relative viability ([16]; first compound 0.08 µM): 0.409
- relative viability ([16]; first compound 0.253 µM): 0.392
- relative viability ([16]; first compound 0.8 µM): 0.384
- relative viability ([16]; first compound 2.53 µM): 0.376
- relative viability ([17]; first compound 0.08 µM): 1.15
- relative viability ([17]; first compound 0.253 µM): 0.707
- relative viability ([17]; first compound 0.8 µM): 0.916
- relative viability ([17]; first compound 2.53 µM): 0.646
- relative viability ([18]; first compound 0.08 µM): 0.659
- relative viability ([18]; first compound 0.253 µM): 0.652
- relative viability ([18]; first compound 0.8 µM): 0.685
- relative viability ([18]; first compound 2.53 µM): 0.553
- relative viability ([19]; first compound 0.253 µM): 0.63
- relative viability ([19]; first compound 0.8 µM): 1.12
- relative viability ([19]; first compound 2.53 µM): 0.355
- relative viability ([20]; first compound 0.08 µM): 0.533
- relative viability ([20]; first compound 0.253 µM): 0.477
- relative viability ([20]; first compound 0.8 µM): 0.478
- relative viability ([20]; first compound 2.53 µM): 0.301
- relative viability ([21]; first compound 0.08 µM): 0.622
- relative viability ([21]; first compound 0.253 µM): 0.667
- relative viability ([21]; first compound 0.8 µM): 0.62
- relative viability ([21]; first compound 2.53 µM): 0.769
- relative viability ([22]; first compound 0.08 µM): 0.421
- relative viability ([22]; first compound 0.253 µM): 0.279
- relative viability ([22]; first compound 0.8 µM): 0.365
- relative viability ([22]; first compound 2.53 µM): 0.342
- relative viability ([23]; first compound 0.08 µM): 0.602
- relative viability ([23]; first compound 0.253 µM): 0.379
- relative viability ([23]; first compound 0.8 µM): 0.398
- relative viability ([23]; first compound 2.53 µM): 0.268
